Legend:
Experiment in all cases: relative viability (nuclei count vs DMSO), 5 days (fraction); higher = more cells survive
AZD6482 + Tozasertib = compound: Cc1cc([C@@H](C)Nc2ccccc2C(=O)O)c2nc(N3CCOCC3)cc(=O)n2c1 [AZD6482] + Cc1cc(Nc2cc(N3CCN(C)CC3)nc(Sc3ccc(NC(=O)C4CC4)cc3)n2)n[nH]1 [Tozasertib] (partner 0.1 µM)
Procedure, shortened: (§1)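 Lung cancer cell lines were seeded in 1536-well plates and dosed by pin tool the next day, with either a single drug or a fixed anchor-drug dose combined with five library-drug doses (not always all listed) spaced in √10 steps. Five days later, one step fixed the cells and stained their nuclei (final 0.05% Triton X-100, 1% formaldehyde, 1 ug/ml Hoechst), and nuclei were counted on 4× images. Relative viability is the nuclei count in treated wells divided by the count in vehicle wells, and each value is the median of duplicate plates.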

AZD6482 + Olaparib = compound: Cc1cc([C@@H](C)Nc2ccccc2C(=O)O)c2nc(N3CCOCC3)cc(=O)n2c1 [AZD6482] + O=C(c1cc(Cc2n[nH]c(=O)c3ccccc23)ccc1F)N1CCN(C(=O)C2CC2)CC1 [Olaparib] (partner 8 µM)
Procedure, shortened: as §1

[1] = compound: COc1cc2nc(N3CCCN(C)CC3)nc(NC3CCN(Cc4ccccc4)CC3)c2cc1OC + CS(=O)(=O)N1CCN(Cc2cc3nc(-c4cccc5[nH]ncc45)nc(N4CCOCC4)c3s2)CC1 [Pictilisib] (partner 1 µM)
Procedure, shortened: as §1

[2] = compound: COc1cc2nc(N3CCCN(C)CC3)nc(NC3CCN(Cc4ccccc4)CC3)c2cc1OC + COc1cc2c(Oc3ccc(NC(=O)C4(C(=O)Nc5ccc(F)cc5)CC4)cc3F)ccnc2cc1OCCCN1CCOCC1 [Foretinib] (partner 0.25 µM)
Procedure, shortened: as §1

Row | Cell Line | relative viability (AZD6482 + Tozasertib; first compound 0.08 µM) | relative viability (AZD6482 + Tozasertib; first compound 0.253 µM) | relative viability (AZD6482 + Tozasertib; first compound 0.8 µM) | relative viability (AZD6482 + Tozasertib; first compound 2.53 µM) | relative viability (AZD6482 + Tozasertib; first compound 8 µM) | relative viability (AZD6482 + Olaparib; first compound 0.08 µM) | relative viability (AZD6482 + Olaparib; first compound 0.253 µM) | relative viability (AZD6482 + Olaparib; first compound 0.8 µM) | relative viability (AZD6482 + Olaparib; first compound 2.53 µM) | relative viability (AZD6482 + Olaparib; first compound 8 µM) | relative viability ([1]; first compound 0.2 µM) | relative viability ([1]; first compound 0.6325 µM) | relative viability ([1]; first compound 2 µM) | relative viability ([1]; first compound 6.325 µM) | relative viability ([2]; first compound 0.2 µM) | relative viability ([2]; first compound 0.6325 µM) | relative viability ([2]; first compound 2 µM) | relative viability ([2]; first compound 6.325 µM)
1 | NCI-H1975 | 0.624 | 0.717 | 0.701 | 0.629 | 0.463 | 0.661 | 0.832 | 0.964 | 0.648 | 0.624 | 0.276 | 0.313 | 0.332 | 0.248 | 0.972 | 0.97 | 1 | 0.955
2 | NCI-H1944 | 0.238 | 0.242 | 0.217 | 0.206 | 0.189 | 0.399 | 0.443 | 0.428 | 0.337 | 0.388 | 0.342 | 0.365 | – | 0.336 | 0.882 | 0.867 | 0.862 | 0.807
3 | LU99A | 0.281 | 0.294 | 0.253 | 0.263 | 0.247 | 0.259 | 0.273 | 0.255 | 0.28 | 0.24 | 0.322 | 0.304 | 0.297 | 0.278 | 0.895 | 0.864 | 0.821 | 0.803
4 | SW 1573 | 0.158 | 0.17 | 0.184 | 0.123 | 0.143 | 0.478 | 0.4 | 0.486 | 0.401 | 0.369 | 0.478 | 0.539 | 0.537 | 0.325 | 0.844 | 0.974 | 0.941 | 0.862
5 | NCI-H2347 | 0.321 | 0.388 | 0.364 | 0.357 | 0.371 | 0.449 | 0.536 | 0.496 | 0.432 | 0.432 | 0.702 | 0.686 | 0.574 | 0.549 | 0.791 | 0.834 | 1.02 | 1
6 | NCI-H2009 | 0.677 | 0.733 | 0.637 | 0.503 | 0.521 | 0.597 | 0.683 | 0.703 | 0.452 | 0.619 | 0.686 | 0.859 | 0.962 | 0.673 | 1.27 | 1.22 | 1.23 | 1.09
7 | HCC-15 | 0.344 | 0.332 | 0.377 | 0.37 | 0.293 | 0.692 | 0.662 | 0.737 | 0.697 | 0.768 | 0.744 | 0.883 | 0.701 | 0.618 | 1.1 | 1 | 1.06 | 0.853
8 | HCC-44 | 0.945 | 0.895 | 0.88 | 0.957 | 0.829 | 1 | 1.11 | 1.1 | 1.15 | 1.08 | 0.616 | 0.693 | 0.563 | 0.605 | – | – | – | –
9 | COR-L23 | 0.183 | 0.192 | 0.162 | 0.153 | 0.171 | 0.272 | 0.414 | 0.364 | 0.195 | 0.34 | 0.843 | 0.701 | 0.931 | 0.772 | 1.02 | 0.95 | 0.965 | 0.996
10 | HCC-78 | 0.327 | 0.335 | 0.271 | 0.317 | 0.227 | 0.663 | 0.641 | 0.533 | 0.383 | 0.416 | 0.206 | 0.212 | 0.207 | 0.188 | 0.57 | 0.578 | 0.58 | 0.533
11 | NCI-H1299 | – | – | – | – | – | 0.995 | 1.02 | 1.07 | 0.992 | 0.934 | 0.734 | 0.777 | 1.05 | 0.649 | 1.07 | 1.07 | 1.13 | 1.06
12 | NCI-H727 | 0.587 | 0.645 | 0.571 | 0.457 | 0.449 | 0.681 | 0.666 | 0.66 | – | 0.669 | 0.391 | 0.394 | 0.32 | 0.346 | 0.771 | 1.04 | 0.889 | 0.832
13 | NCI-H2087 | 0.282 | 0.268 | 0.221 | – | 0.205 | 0.578 | 0.587 | 0.523 | 0.345 | 0.519 | 0.752 | 0.996 | 0.872 | 0.834 | 1.12 | 0.99 | 1.31 | 1.25
14 | SW 900 | 0.559 | 0.506 | 0.561 | – | 0.567 | 0.678 | 0.665 | 0.661 | 0.623 | 0.616 | – | – | – | – | 0.679 | 1.15 | 0.779 | 0.857
15 | NCI-H1563 | – | – | – | – | – | – | – | – | – | – | 0.566 | 0.622 | 0.558 | 0.55 | 1.03 | 0.944 | 0.973 | 0.824
16 | A549 | – | – | – | – | – | 0.26 | 0.33 | 0.37 | – | 0.315 | 0.551 | 0.569 | 0.622 | 0.473 | 0.951 | 0.966 | 0.997 | 0.763
17 | NCI-H2342 | 0.465 | 0.432 | 0.488 | 0.372 | 0.359 | 0.346 | 0.368 | 0.4 | 0.42 | 0.329 | – | – | – | – | 1.1 | 1 | 1.17 | 1.1
18 | NCI-H1623 | 0.384 | 0.382 | 0.397 | 0.419 | 0.371 | – | – | – | – | – | – | – | – | – | 0.903 | 0.94 | 0.848 | 0.768
19 | NCI-H522 | 0.541 | 0.439 | 0.623 | 0.523 | 0.543 | 0.573 | 0.697 | 0.634 | 0.596 | 0.577 | – | – | – | – | – | – | – | –
20 | IA-LM | – | – | – | – | – | 0.982 | 0.995 | 1.15 | – | 0.759 | 0.342 | 0.389 | 0.419 | 0.322 | 1.13 | 0.807 | 1.34 | 1.16
21 | EBC-1 | – | – | – | – | – | 0.533 | 0.675 | 0.637 | 0.467 | 0.301 | 0.337 | 0.392 | 0.248 | 0.132 | 0.1 | 0.117 | 0.114 | 0.107

Reference: the supplement of paper PMC10307832
